Columns and labels:
[1] = system: intestinal cholesterol absorption; test: Inhibition of intestinal cholesterol absorption (modified Zilversmit/Hughes method); format: in vivo; settings: NMRI mice, application of the biotin-tagged photoaffinity label
Description: Intestinal cholesterol absorption was determined by a modification of the Zilversmit/Hughes method. Male NMRI mice (Charles River Deutschland GmbH, Salzfeld, Germany) kept on regular chow (Altronin®, Lage, Germany) were starved for 12 hours. Then, 0.5 ml of a solution of 0.5% methylcellulose/5% Solutol (BASF, Ludwigshafen, Germany) as vehicle with or without 3 mg of the respective cholesterol absorption inhibitor were applied by gavage to each animal followed by 0.25 ml of Intralipid® (Pharmacia & Upjohn, Erlangen, Germany) solution containing 0.24 μCi [^14C]cholesterol and 0.25 μCi [^3H]sitosterol. The animals (five mice per group) were kept on metabolism cages and feces were collected. After 24 hours the animals were killed and the radioactivity in the feces and the liver was determined by combustion analysis.
(§1) For a one-step purification of the target-protein for cholesterol absorption inhibitors we have coupled the biotin-containing photolabile group N-(biotinyl)-4-azidophenyl alanine via a spacer to the para-position of the N-phenyl or benzylamino ring of 2-azetidinone cholesterol absorption inhibitors.

[2] = system: 145 kDa binding protein for cholesterol absorption inhibitors; test: Photoaffinity labeling of small intestinal BBMV with [3H]C-1 in the presence of competitor; settings: rabbit small intestinal BBMV, increasing concentrations of competitor
Description: 8 Samples of rabbit ileal brush border membrane vesicles (250 μg of protein) were incubated with 66 nM (0.3 μCi) of [^3H]C-1 in 10 mM Tris/Hepes buffer (pH 7.4)/100 mM NaCl/100 mM mannitol for 30 min at 20° C. in the dark. After irradiation for 30 sec at 254 nm in a Rayonet RPR 100 photochemical reactor equipped with 4 RPR 2537 Å lamps (The Southern Ultraviolet Company, Hamden, Conn., USA) the samples were collected and after centrifugation the membrane vesicles were resuspended in 2 ml 10 mM Tris/Hepes buffer (pH 7.4)/300 mM mannitol and centrifugated after 20 min at 20° C. This procedure was repeated three times. The resulting pellet was solubilized with 2 ml “solubilization buffer”. After centrifugation, a 40 μl aliquot of the supernatant was removed and analyzed by SDS PAGE and subsequent slicing of the gel for incorporation of radioactivity into membrane proteins.
as §1

[3] = system: 145 kDa binding protein for cholesterol absorption inhibitors; test: Photoaffinity labeling with biotin-tagged C-4 and extraction with streptavidin beads; set-up: species or system rabbit
Description: 10 Samples of rabbit ileal brush border membrane vesicles (200 µg of protein) were incubated with 200 μM of the biotin-tagged cholesterol inhibitor C-4 in 10 mM Tris/Hepes buffer (pH 7.4)/100 mM NaCl/100 mM mannitol for 30 min in the dark at 20° C. followed by irradiation at 254 nm for 30 sec in a Rayonet RPR-100 photochemical reactor equipped with 4 RPR 2537 Å-lamps. After collecting, the vesicles were washed 3 times with 2 ml Tris/Hepes buffer (pH 7.4)/300 mM mannitol. The final pellet was suspended in 2 ml of “solubilization buffer” for 1 hour at 4° C. After centrifugation, the clear supernatant was mixed with 0.5 ml of streptavidin-agarose beads and kept under stirring at 4° C. for 2 hours. After centrifugation, the beads were incubated with 2 ml 10 mM Tris/Hepes buffer (pH 7.4)/300 mM mannitol/1% n-octylglucoside/4 mM PMSF/4 mM iodacetamide/4 mM EDTA/for 10 min at 4° C. followed by centrifugation. After repeating this procedure twice, proteins were eluted from the streptavidin-agarose beads with 3 portions a 2 ml of the above buffer containing 5 mM biotin. From all eluates aliquots were removed for the determination of the enzymatic activity of aminopeptidase N and sucrase and for analysis by SDS-PAGE. For final purification the biotin eluates containing the covalently modified 145 kDa binding protein for cholesterol absorption inhibitors was achieved by preparative SDS gel electrophoresis as described above.
Rabbit small intestinal BBMV were incubated with 200 μM of C-4 and crosslinking was achieved by ultraviolet irradiation at 254 nm. After solubilization the covalently modified proteins containing the biotin-tagged 2-azetidinone cholesterol absorption inhibitors were extracted with streptavidin-beads. After intensive washing bound proteins were eluted with a 10 mM solution of biotin and analyzed by SDS-PAGE. […] Therefore, the 145 kDa binding protein could only be purified from those anatomical sites where intestinal cholesterol absorption occurs, the duodenum, jejunum and ileum. […]

| extent of labeling of the 145 kDa-protein by [3H]C-1 [2] | amount of 145 kDa protein extractable with streptavidin beads ([3]; competitor present during photolabeling with C-4, 200 μM for cholesterol absorption inhibitors) | Compound | intestinal cholesterol absorption [1] | 145 kDa protein retarded by streptavidin beads after labeling of membranes from other organs ([3]; BBMV from stomach, cecum, colon, rectum, kidney, liver or adipocytes) | proteins retained by the streptavidin-beads after crosslinking ([3]; rabbit small intestinal BBMV, 200 μM C-4, ultraviolet irradiation at 254 nm, SDS-PAGE) |
| --- | --- | --- | --- | --- | --- |
| concentration-dependent decrease | – | COc1ccc(C2C(CC[C@H](O)c3ccccc3)C(=O)N2c2ccc(NC(=O)CCCCNC(=O)C(Cc3ccc(N=[N+]=[N-])cc3)NC(=O)CCCCC3SCC4NC(=O)NC43)cc2)cc1 (some centres unmarked) [C-4, 5-(2-Oxo-hexahydro-thieno[3,4-d]imidazol-6-yl)-pentanoic acid-[2-(4-azido-phenyl)-1-(4-{4-[3-(3-hydroxy-3-phenyl-propyl)-2-(4-methoxy-phenyl)4-oxo-azetidin-1-yl]-phenylcarbamoyl}-butylcarbamoyl)-ethyl]-amid] | dose-dependently inhibited | no 145 kDa protein was retarded by streptavidin beads | Predominantly one protein of Mr 145 kDa was retained |
| – | reduced | O=C1[C@H](CC[C@H](O)c2ccc(F)cc2)[C@@H](c2ccc(O)cc2)N1c1ccc(F)cc1 [Ezetimibe, reference compound] | – | – | – |

From US7435727B2, “Method for isolating an intestinal cholesterol binding protein” (Sanofi-Aventis Deutschland GmbH, priority 2002, dated 2008)
